Values joined by “and” are separate entries in the source; they are usually repeats but may differ in a detail not shown here. Equal values may be shown once.
These compounds were tested against 5-hydroxytryptamine receptor 2B (Homo sapiens, UniProt P41595).
5-hydroxytryptamine receptor 2B, sequence (P41595 whole entry): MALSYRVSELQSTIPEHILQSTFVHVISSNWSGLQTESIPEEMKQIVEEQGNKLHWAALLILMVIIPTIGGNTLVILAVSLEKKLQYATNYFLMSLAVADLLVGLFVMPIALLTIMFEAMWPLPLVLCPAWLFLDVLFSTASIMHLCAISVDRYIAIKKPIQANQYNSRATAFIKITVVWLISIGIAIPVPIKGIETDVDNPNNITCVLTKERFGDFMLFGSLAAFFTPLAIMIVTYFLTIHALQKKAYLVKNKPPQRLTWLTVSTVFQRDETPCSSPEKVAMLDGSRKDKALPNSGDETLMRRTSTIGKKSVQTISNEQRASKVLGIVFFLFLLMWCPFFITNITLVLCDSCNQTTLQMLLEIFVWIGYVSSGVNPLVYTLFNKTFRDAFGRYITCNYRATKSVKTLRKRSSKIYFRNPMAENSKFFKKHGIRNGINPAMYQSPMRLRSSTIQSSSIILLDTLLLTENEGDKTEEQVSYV

Question: `CC(O)C(C)OC(=O)C1CC2c3cccc4c3c(cn4C(C)C)CC2N(C)C1` (stereo not drawn) [CAS_60634-51-7] was tested. Which Ki did it give?
Answer: 1.53 nM and 0.74 nM

Question: How did the Ki turn out when `O=C(CCCN1CCC2(CC1)C(=O)NCN2c1ccccc1)c1ccc(F)cc1` [8-[4-(4-fluorophenyl)-4-oxidanylidene-butyl]-1-phenyl-1,3,8-triazaspiro[4.5]decan-4-one] was run?
Answer: 592 nM and 317 nM

Question: For `CCN(CC)C(=O)[C@@H]1C=C2c3cccc4[nH]c(Br)c(c34)C[C@H]2N(C)C1` [LSD,2-Bromo], which Ki is on record?
Answer: 8.09 nM and 7.47 nM

Question: With `O=C1NCN(c2ccccc2)C12CCN(CC1COc3ccccc3O1)CC2` (stereo not drawn) [8-(2,3-Dihydro-benzo[1,4]dioxin-2-ylmethyl)-1-phenyl-1,3,8-triaza-spiro[4.5]decan-4-one] as the compound, how does the Ki read?
Answer: 475 nM and 173 nM

Question: `Cc1nc2sccn2c(=O)c1CCN1CCC(=C(c2ccc(F)cc2)c2ccc(F)cc2)CC1` was tested. Which Ki did it give?
Answer: 1.64 nM and 0.4 nM

Question: Which Ki does the source give for `CN1C[C@@H](NS(=O)(=O)N(C)C)C[C@@H]2c3cccc4c3c(cn4C)C[C@H]21` [MESULERGINE] here?
Answer: 3.3 nM and 1.92 nM

Question: For `CN(C)CCC(c1ccc(Cl)cc1)c1ccccn1` (stereo not drawn) [clorfeniramina], which Ki is on record?
Answer: 6800 nM and 4170 nM

Question: `c1ccc2c(N3CCNCC3)cccc2c1` was tested. Which Ki did it give?
Answer: 0.89 nM
